Patent US9315490B2, “2,5-substituted pyrimidines” (Grünenthal GmbH, priority 2014, dated 2016)

biological target: T1, human PDE4B1 (Homo sapiens, UniProt Q07343); experiment: cAMP HTRF assay to determine the activity of hPDE4B1; type: biochemical; conditions: inhibition of PDE4B at a test concentration of 1 μM
T1 construct: host or cells: Sf9 cells
Summary of the method: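 Human recombinant PDE4B1 from Sf9 cells (4.8 U) in Tris-HCl, MgCl2, DTT, Tween 20 buffer at pH 7.8 with 40 nM cAMP (final), 30 min at room temperature. Reaction stopped with 1 mM IBMX; remaining cAMP detected by HTRF (665/620 nm ratio). IC50 from eight-concentration curves.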

T1 sequence (Q07343 whole entry): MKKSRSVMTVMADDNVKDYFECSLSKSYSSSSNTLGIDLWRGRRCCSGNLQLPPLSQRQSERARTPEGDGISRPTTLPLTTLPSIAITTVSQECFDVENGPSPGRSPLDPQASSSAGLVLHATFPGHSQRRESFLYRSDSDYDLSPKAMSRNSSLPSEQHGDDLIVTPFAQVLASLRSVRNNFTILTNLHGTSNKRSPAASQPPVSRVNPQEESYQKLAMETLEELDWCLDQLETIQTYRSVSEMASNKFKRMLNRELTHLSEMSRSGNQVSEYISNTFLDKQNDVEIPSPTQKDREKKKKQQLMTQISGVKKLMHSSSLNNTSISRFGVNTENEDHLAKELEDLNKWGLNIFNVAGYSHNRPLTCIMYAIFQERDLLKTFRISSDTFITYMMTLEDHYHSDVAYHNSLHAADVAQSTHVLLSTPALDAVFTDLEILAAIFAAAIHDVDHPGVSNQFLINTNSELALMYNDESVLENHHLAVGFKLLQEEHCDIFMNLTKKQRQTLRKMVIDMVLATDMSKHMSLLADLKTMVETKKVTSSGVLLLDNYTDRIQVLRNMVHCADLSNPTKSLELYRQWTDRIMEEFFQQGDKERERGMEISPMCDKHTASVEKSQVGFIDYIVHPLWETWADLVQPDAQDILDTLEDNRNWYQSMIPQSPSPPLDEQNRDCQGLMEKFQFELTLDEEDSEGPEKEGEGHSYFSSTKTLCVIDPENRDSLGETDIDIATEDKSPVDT

First: CN1CCN(C(=O)c2ccc3c([S+](C)[O-])cn(-c4ncc(-c5ccccc5F)cn4)c3c2)CC1=O (centres unmarked) [Example 76, 4-(1-(5-(2-Fluorophenyl)pyrimidin-2-yl)-3-(methylsulfinyl)-1H-indole-6-carbonyl)-1-methylpiperazin-2-one]
Second: CO[C@@H]1CCN(C(=O)c2ccc3c([S+](C)[O-])cn(-c4ncc(-c5ccccc5F)cn4)c3c2)C1 (stereo partly drawn) [Example 82, (1-(5-(2-Fluorophenyl)pyrimidin-2-yl)-3-(methylsulfinyl)-1H-indol-6-yl)((R)-3-methoxypyrrolidin-1-yl)methanone]
The inhibition at 1 µM of the first is lower: 58% for the first, 71% for the second.

First: COC[C@H]1CCCN1C(=O)c1ccc2c([S+](C)[O-])cn(-c3ncc(-c4ccccc4F)cn3)c2c1 (stereo partly drawn) [Example 77, (1-(5-(2-Fluorophenyl)pyrimidin-2-yl)-3-(methylsulfinyl)-1H-indol-6-yl)((R)-2-(methoxymethyl)pyrrolidin-1-yl)methanone]
Second: C[S+]([O-])c1cn(-c2ncc(-c3ccccc3F)cn2)c2cc(C(=O)N3CCC[C@@H]3CO)ccc12 (stereo partly drawn) [Example 78, (1-(5-(2-Fluorophenyl)pyrimidin-2-yl)-3-(methylsulfinyl)-1H-indol-6-yl)((R)-2-(hydroxymethyl)pyrrolidin-1-yl)methanone]
The inhibition at 1 µM of the first is lower: 67% for the first, 70% for the second.

Compared with `C[S+]([O-])c1cn(-c2ncc(-c3ccccc3F)cn2)c2cc(C(=O)N3CCC[C@H]3CO)ccc12` (stereo partly drawn) [Example 79, (1-(5-(2-Fluorophenyl)pyrimidin-2-yl)-3-(methylsulfinyl)-1H-indol-6-yl)((S)-2-(hydroxymethyl)pyrrolidin-1-yl)methanone], `C[S+]([O-])c1cn(-c2ncc(-c3ccccc3F)cn2)c2cc(C(=O)N3CCC[C@@H](O)C3)ccc12` (stereo partly drawn) [Example 80, (1-(5-(2-Fluorophenyl)pyrimidin-2-yl)-3-(methylsulfinyl)-1H-indol-6-yl)((R)-3-hydroxypiperidin-1-yl)methanone] is lower in inhibition at 1 µM: 103% for the first, 96% for the second.

First: C[S+]([O-])c1cn(-c2ncc(-c3ccccc3F)cn2)c2cc(C(=O)N3CCC[C@H](O)C3)ccc12 (stereo partly drawn) [Example 81, (1-(5-(2-Fluorophenyl)pyrimidin-2-yl)-3-(methylsulfinyl)-1H-indol-6-yl)((S)-3-hydroxypiperidin-1-yl)methanone]
Second: C[C@@H]1CN(C(=O)c2ccc3c([S+](C)[O-])cn(-c4ncc(-c5ccccc5F)cn4)c3c2)CCO1 (stereo partly drawn) [Example 84, (1-(5-(2-Fluorophenyl)pyrimidin-2-yl)-3-(methylsulfinyl)-1H-indol-6-yl)((R)-2-methylmorpholino)methanone]
The inhibition at 1 µM of the first is lower: 63% for the first, 106% for the second.

First: C[S+]([O-])c1cn(-c2ncc(-c3ccccc3F)cn2)c2cc(C(=O)NCC3COC3)ccc12 (centres unmarked) [Example 83, 1-(5-(2-Fluorophenyl)pyrimidin-2-yl)-3-(methylsulfinyl)-N-(oxetan-3-ylmethyl)-1H-indole-6-carboxamide]
Second: C[C@H]1COCCN1C(=O)c1ccc2c([S+](C)[O-])cn(-c3ncc(-c4ccccc4F)cn3)c2c1 (stereo partly drawn) [Example 178, (1-(5-(2-Fluorophenyl)pyrimidin-2-yl)-3-(methylsulfinyl)-1H-indol-6-yl)((S)-3-methylmorpholino)methanone]
The inhibition at 1 µM of the first is lower: 67% for the first, 88% for the second.

First: C[C@H]1CN(C(=O)c2ccc3c([S+](C)[O-])cn(-c4ncc(-c5ccccc5F)cn4)c3c2)CCO1 (stereo partly drawn) [Example 85, (1-(5-(2-Fluorophenyl)pyrimidin-2-yl)-3-(methylsulfinyl)-1H-indol-6-yl)((S)-2-methylmorpholino)methanone]
Second: C[S+]([O-])c1cn(-c2ncc(-c3ccccc3F)cn2)c2cc(C(=O)N3CC4CC3CN4)ccc12 (centres unmarked) [Example 175, 2,5-Diazabicyclo[2.2.1]heptan-2-yl(1-(5-(2-fluorophenyl)pyrimidin-2-yl)-3-(methylsulfinyl)-1H-indol-6-yl)methanone]
The inhibition at 1 µM of the first is higher: 115% for the first, 114% for the second.

Compared with `C[S+]([O-])c1cn(-c2ncc(-c3ccc(O)cc3)cn2)c2cc(C(=O)N3CCOCC3)ccc12` (centres unmarked) [Example 86, (1-(5-(4-Hydroxyphenyl)pyrimidin-2-yl)-3-(methylsulfinyl)-1H-indol-6-yl)(morpholino)methanone], `Cc1cccc(-c2cnc(-n3cc(S(C)(=O)=O)c4ccc(C(=O)N5CCOCC5)cc43)nc2)c1` [Example 156, (3-(Methylsulfonyl)-1-(5-(m-tolyl)pyrimidin-2-yl)-1H-indol-6-yl)(morpholino) methanone] is lower in inhibition at 1 µM: 99% for the first, 58% for the second.

Compared with `COc1cccc(-c2cnc(-n3cc(S(C)(=O)=O)c4ccc(C(=O)N5CCOCC5)cc43)nc2)c1` [Example 159, (1-(5-(3-Methoxyphenyl)pyrimidin-2-yl)-3-(methylsulfonyl)-1H-indol-6-yl)(morpholino)methanone], `COc1ccc(F)c(-c2cnc(-n3cc(S(C)(=O)=O)c4ccc(C(=O)N5CCOCC5)cc43)nc2)c1` [Example 162, (1-(5-(2-Fluoro-5-methoxyphenyl)pyrimidin-2-yl)-3-(methylsulfonyl)-1H-indol-6-yl)(morpholino)methanone] is lower in inhibition at 1 µM: 98% for the first, 95% for the second.

First: Cc1cccc(-c2cnc(-n3cc(S(C)(=O)=O)c4ccc(C(=O)N5CC[C@@H](N)C5)cc43)nc2)c1 [Example 167, (R)-(3-Aminopyrrolidin-1-yl)(3-(methylsulfonyl)-1-(5-(m-tolyl)pyrimidin-2-yl)-1H-indol-6-yl)methanone]
Second: CN(CC(=O)O)C(=O)c1ccc2c([S+](C)[O-])cn(-c3ncc(-c4ccccc4F)cn3)c2c1 (centres unmarked) [Example 173, 2-(1-(5-(2-Fluorophenyl)pyrimidin-2-yl)-N-methyl-3-(methylsulfinyl)-1H-indole-6-carboxamido)acetic acid]
The inhibition at 1 µM of the first is higher: 87% for the first, 70% for the second.

Compared with `CC(O)CN(C)C(=O)c1ccc2c([S+](C)[O-])cn(-c3ncc(-c4ccccc4F)cn3)c2c1` (centres unmarked) [Example 168, 1-(5-(2-Fluorophenyl)pyrimidin-2-yl)-N-(2-hydroxypropyl)-N-methyl-3-(methylsulfinyl)-1H-indole-6-carboxamide], `CN(CC(C)(C)O)C(=O)c1ccc2c([S+](C)[O-])cn(-c3ncc(-c4ccccc4F)cn3)c2c1` (centres unmarked) [Example 171, 1-(5-(2-Fluorophenyl)pyrimidin-2-yl)-N-(2-hydroxy-2-methylpropyl)-N-methyl-3-(methylsulfinyl)-1H-indole-6-carboxamide] is lower in inhibition at 1 µM: 43% for the first, 38% for the second.

Compared with `CN(C(=O)c1ccc2c([S+](C)[O-])cn(-c3ncc(-c4ccccc4F)cn3)c2c1)C1(CO)CC1` (centres unmarked) [Example 170, 1-(5-(2-Fluorophenyl)pyrimidin-2-yl)-N-(1-(hydroxymethyl)cyclopropyl)-N-methyl-3-(methylsulfinyl)-1H-indole-6-carboxamide], `CN(CC(N)=O)C(=O)c1ccc2c([S+](C)[O-])cn(-c3ncc(-c4ccccc4F)cn3)c2c1` (centres unmarked) [Example 174, N-(2-Amino-2-oxoethyl)-1-(5-(2-fluorophenyl)pyrimidin-2-yl)-N-methyl-3-(methylsulfinyl)-1H-indole-6-carboxamide] is higher in inhibition at 1 µM: 54% for the first, 105% for the second.

`COC(=O)CN(C)C(=O)c1ccc2c([S+](C)[O-])cn(-c3ncc(-c4ccccc4F)cn3)c2c1` (centres unmarked) [Example 177, Methyl 2-(1-(5-(2-fluorophenyl)pyrimidin-2-yl)-N-methyl-3-(methylsulfinyl)-1H-indole-6-carboxamido)acetate] showed an inhibition at 1 µM of 39%.
